In patent USRE37781E1, “Substituted cyclic carbonyls and derivatives thereof useful as retroviral protease inhibitors” (DuPont Pharmaceuticals Company, priority 1991, dated 2002):
Values after ≈ are worked out from the molar mass of the structure shown. Read-outs that look alike come from different tables or passages of the source.

How the values were obtained:
[1] = target: single-chain tethered dimer of HIV protease (Human immunodeficiency virus 1, UniProt P04585); experiment: biochemical; type: biochemical
Protocol: HIV Protease Inhibition Assay—HPLC Method
Active protease was prepared as described therein by extraction with 67% acetic acid, dilution 33-fold with water, dialysis against water and then against a “refolding buffer” consisting of 20 mM MES, 1 mM dithiothreitol and 10% glycerol. Protease was stored as a stock preparation at 10 uM in refolding buffer.
Substrate: Peptide of sequence: aminobenzoyl-Ala-Thr-His-Gln-Val-Tyr-Phe(NO2)-Val-Arg-Lys-Ala containing p-nitrophenylalanine, was prepared by solid phase synthesis as previously described Cheng et al., op.cit. Stock solutions of 2 mM substrate were prepared in DMSO.
Inhibitory compounds were dissolved in sufficient DMSO to make 3 mM stock solutions. All further dilutions were prepared in “assay buffer”: 1M NaCl, 50 mM MES, pH 5.5, 1 mM EDTA, 1 mM DTT, […] glycerol.
Enzyme reaction: In a 2 ml screw-cap centrifuge tube were added 50 ul protease (final concentration 0.25 nM) and 0.1 ml inhibitory compound (final concentration […]). After 15 min preincubation at room temperature, the reaction was started with the addition of 0.05 ml substrate (final concentration 5 uM). Incubation was carried out at 30 C. for 1 hr. The reaction was stopped with 1 ml 0.1M ammonium hydroxide.
HPLC measurement of product formation: The product (aminobenzoyl-Ala-Thr-His-Gln-Val-Tyr) was separated from substrate on a Pharmacia MonoQ anion exchange column. The injection volume was 0.2 ml. The mobile phases were: A (20 mM trisHCl, pH 9.0, 0.02% sodium Azide, 10% acetonitrile), B (20 mM tris HCl, pH 9.0, 0.02% sodium azide, 0.5M ammonium formate, 10% acetonitrile). The mobile phases were pumped at 1 ml/min, with a gradient from 0 to 30% B in 5 min, 100% B for 4 min to wash the column, and a re-equilibration for 4 min. The retention time of the product was 3.6 min. Detection with a Shimadzu model RF535 fluorescence monitor was at 330 nm (excitation) and 430 (emission).

HIV-1 (RF) in MT-2 cells = experiment: microbe, parasite or virus in culture; type: cell-based; settings: read-out: IC90
Summary of the method: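 HIV-1 laboratory strains (RF, MN, IIIB) grown in H9 cells in RPMI 1640 with 5% FCS; infections in MT-2 cells. Viral RNA quantified by hybridization with biotinylated gag/pol capture probes on streptavidin plates and alkaline phosphatase-conjugated reporter probes; BH10 gag-pol in vitro transcripts serve as RNA standards.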

HIV protease = target: T1, HIV protease (Human immunodeficiency virus type 1 group M subtype B, UniProt P04585); experiment: biochemical; parameters: species or system HIV-1
T1 construct: plasmid containing HIV protease under the control of an inducible T7 promoter; made in house; host or cells: E. coli (inclusion bodies, T7 promoter)
Protocol: HIV Protease Inhibition Assay—Spectroscopic Method
Inclusion bodies were solubilized in 8M urea, 50 mM tris pH 8.0. Protease activity was recovered by dilution 20-fold into buffer containing 50 mM sodium acetate pH 5.5, 1 mM EDTA, 10% glycerol and 5% ethylene glycol. Enzyme was used at a final concentration of 1.0-10 ug/ml.
Stock solutions of 10 mM were prepared in DMSO.
All further dilutions were done in DMSO.

[2] = Human immunodeficiency virus 1, MT2, Table 1c
[3] = Human immunodeficiency virus 1, MT2, Table 2A
[4] = Human immunodeficiency virus 1, MT2, second table headed Table 2A
[5] = second table headed Table 2A, read-out: Ki

Row | Compound | Ki ([1]; Table 2t, read-out: Ki) [nM] | IC90 (HIV-1 (RF) in MT-2 cells; [2]) [µg/mL] | Ki (HIV protease; Ki) [nM] | melting point [°C] | other results
1 | O=C1N(CC2CC2)CC(O)C(Cc2ccccc2)N1CC1CC1 (stereo not drawn) [30E] | > 1000 |  |  |  | 
2 | O=C1N(Cc2ccc(CO)cc2)CC(O)C(Cc2ccccc2)N1Cc1ccc(CO)cc1 (stereo not drawn) [30B] | > 1000 |  |  |  | 
3 | O=C1N(CCCCCCO)CC(O)C(Cc2ccccc2)N1CCCCCCO (stereo not drawn) [30G] | > 1000 |  |  |  | 
4 | O=C1CCN(Cc2ccccc2)C(=O)N(Cc2ccccc2)C1Cc1ccccc1 (stereo not drawn) [30S] | > 1000 |  |  |  | 
5 | NC(=NO)c1cccc(CN2CCC(O)C(Cc3ccccc3)N(Cc3cccc(C(N)=NO)c3)C2=O)c1 (stereo not drawn) [30R] | < 10 |  |  |  | 
6 | O=C1N(Cc2ccc3ccccc3c2)CCC(O)C(Cc2ccccc2)N1Cc1ccc2ccccc2c1 (stereo not drawn) [30M] | > 1000 |  |  |  | 
7 | O=C1N(Cc2ccc(O)c(O)c2)C(Cc2ccccc2)C(O)C(O)C(Cc2ccccc2)N1Cc1ccc(O)c(O)c1 (stereo not drawn) [Example 6ZQ] |  |  |  |  | IC90 (HIV-1 (RF) in MT-2 cells; Human immunodeficiency virus 1, MT2, HIV RNA assay, HIV-1 infected MT-2 cells, class symbols): < 10 µg/mL; Ki [1]: < 10 nM
8 | N#Cc1cccc(CN2CCC(O)C(Cc3ccccc3)N(Cc3cccc(C#N)c3)C2=O)c1 (stereo not drawn) [30P] | > 1000 |  |  |  | 
9 | N#Cc1cccc(CN2CC(O)C(Cc3ccccc3)N(Cc3cccc(C#N)c3)C2=O)c1 (stereo not drawn) [30C] | > 1000 |  |  |  | 
10 | CCCCN1C(=NC#N)N(CCCC)C(Cc2ccccc2)C(O)C(O)C1Cc1ccccc1 (stereo not drawn) [Example 1BX] |  | < 10 | < 10 | 58.3 | 
11 | N#CN=C1N(Cc2cccc(N)c2)C(Cc2ccccc2)C(O)C(O)C(Cc2ccccc2)N1Cc1cccc(N)c1 (stereo not drawn) [Example 1CF] |  | < 10 | < 10 | 114.4 | 
12 | N#CN=C1N(CC2CCC2)C(Cc2ccccc2)C(O)C(O)C(Cc2ccccc2)N1CC1CCC1 (stereo not drawn) [Example 1CK] |  | < 10 | < 10 | 235.5 | 
13 | N#CN=C1N(Cc2ccc(OCc3ccccc3)cc2)C(Cc2ccccc2)C(O)C(O)C(Cc2ccccc2)N1Cc1ccc(OCc2ccccc2)cc1 (stereo not drawn) [Example 1BT] |  | > 100 | 10 to 1000 | 90.1 | 
14 | N#CN=C1N(Cc2ccc(CO)cc2)C(Cc2ccccc2)C(O)C(O)C(Cc2ccccc2)N1Cc1ccc(CO)cc1 (stereo not drawn) [Example 1CN] |  | < 10 | 10 to 1000 | 100.9 | 
15 | N#CN=C1N(CC2CCCCC2)C(Cc2ccccc2)C(O)C(O)C(Cc2ccccc2)N1CC1CCCCC1 (stereo not drawn) [Example 1CJ] |  | < 10 | < 10 | 96.4 | 
16 | O=S1(=O)N(CC2CC2)CC(O)C(Cc2ccccc2)N1CC1CC1 (stereo not drawn) [30J] | > 1000 |  |  |  | 
17 | C=CCN1C(=NC#N)N(CC=C)C(Cc2ccccc2)C(O)C(O)C1Cc1ccccc1 (stereo not drawn) [Example 1BW] |  | 10 to 100 (≈ 23.2 to 232 µM) | 10 to 1000 | 70.2 | 
18 | N#CN=C1N(Cc2cccc(C#N)c2)C(Cc2ccccc2)C(O)C(O)C(Cc2ccccc2)N1Cc1cccc(C#N)c1 (stereo not drawn) [Example 1CH] |  | < 10 | 10 to 1000 | 108.5 | 
19 | O=C1N(Cc2cccc(OC(F)(F)F)c2)C(Cc2ccccc2)C(O)C(O)C(Cc2ccccc2)N1Cc1cccc(OC(F)(F)F)c1 (stereo not drawn) [Example 2J] |  |  |  | 128.3 | IC90 (HIV-1 (RF) in MT-2 cells; [3]): < 10 µg/mL; IC90 (HIV-1 (RF) in MT-2 cells; [4]): < 10 µg/mL; Ki (HIV protease; Table 2A, read-out: Ki): 10 to 1000 nM; Ki (HIV protease; [5]): 10 to 1000 nM
20 | CCCN1C(=NC#N)N(CCC)C(Cc2ccccc2)C(O)C(O)C1Cc1ccccc1 (stereo not drawn) [Example 1CL] |  | < 10 | 10 to 1000 | 216.6 | 
21 | N#CN=C1N(Cc2cccc(C=NO)c2)C(Cc2ccccc2)C(O)C(O)C(Cc2ccccc2)N1Cc1cccc(C=NO)c1 (stereo not drawn) [Example 1CQ] |  | < 10 | < 10 | 121.2 | 
22 | N#CN=C1N(CC2CC2)[C@H](Cc2ccccc2)[C@H](O)[C@@H](O)[C@@H](Cc2ccccc2)N1CC1CC1 [Example 1BS] |  | < 10 | 10 to 1000 | 211.2 | 
23 | CN1C(=O)N(Cc2ccccc2)C(Cc2ccccc2)C(O)C(O)C1Cc1ccccc1 (stereo not drawn) [Example 2H] |  |  |  | 81 | IC90 (HIV-1 (RF) in MT-2 cells; [3]): < 10 µg/mL; IC90 (HIV-1 (RF) in MT-2 cells; [4]): < 10 µg/mL; Ki (HIV protease; Table 2A, read-out: Ki): 10 to 1000 nM; Ki (HIV protease; [5]): 10 to 1000 nM
